# Source: patent US20250268873A1, “COMBINATION OF DUAL ATM AND DNA-PK INHIBITORS AND IMMUNOTHERAPEUTIC AGENTS FOR USE IN CANCER THERAPY” (XRAD THERAPEUTICS, INC., priority 2021, published 2025)
# Key:
# hERG channel = hERG channel (Homo sapiens (Human), UniProt Q12809); assay: In-Vitro hERG Inhibition Assay (manual patch clamp); assay type: cell-based; conditions: hERG-T-REx HEK 293 cells
# Description: The hERG-T-REx™ HEK 293 cells (Invitrogen, K1236) were generated by transfecting the hERG coding sequence in the Tet-regulated expression vector pT-Rex-DEST30 into cells expressing the Tet-repressor (T-Rex™ HEK293), thereby producing cells that can be induced to express high level of hERG channels. The cells were cultured in a medium containing of 85% DMEM, 10% dialyzed FBS, 0.1 mM NEAA, 25 mM HEPES, 100 U/mL Penicillin-Streptomycin, 5 μg/mL Blasticidin, and 400 μg/mL Geneticin. The cells were split using TrypLE™ Express (Gibco, 12604) about three times a week and maintained between ˜40% to ˜80% confluence. Before the assay, the cells were induced with doxycycline (Sigma, D9891) at 1 μg/mL for 48 hours. On the experiment day, the induced cells were resuspended and plated onto the coverslips at 5×10^5 cells/per 6 cm cell culture dish prior to use. The hERG channel-mediated current was acquired by manual patch clamp recording systems equipped with amplifiers (HEKA, EPC10 and Molecular Devices, multiclamp 700B) and the inverted phase contrast microscope (Olympus, IX51/71/73). Glass pipettes were prepared by micropipette puller (Sutter, P97 and Narishige, PC-10) and qualified by the pipette resistance in the range of 2-4 MOhms. […] The whole-cell configuration was maintained with access resistance continuously monitored (<15 MOhms). […]
# MCF7 cells = assay: Clonogenic Survival Assay in MCF7 cells; assay type: cell-based, human; conditions: for Fold 2 Gy / Fold 4 Gy: vs DMSO; for % survival @ 0 Gy w/out IR: no IR
# Description: (§1) Human cancer cell lines, including MCF-7 human breast carcinoma cell line and A549 human lung carcinoma cell line, and HCT116 p53 wild-type and HCT116 p53−/− cell lines were obtained from ATCC. MCF7 and HCT116 cells were cultured in Dulbecco's modified Eagle's medium (DMEM (Gibco #11995-065). MDA-MB-231 human triple negative breast cancer cell line and FADU, human head and neck squamous cell carcinoma line, were obtained from Charles River Laboratories (Morrisville, NC). MDA-MB-231 and A549 cells were cultured in RPMI 1640 medium (Gibco, 11875-093). FADU cells were cultured in Minimum Essential Medium α (MEM α) (Gibco, 12571-063) supplemented with 1 mM Sodium Pyruvate (Gibco, 11360-070), 1×MEM Non-Essential Amino Acids (Gibco, 11140-050). All cell lines were supplemented with 10% fetal bovine serum (FBS) (Corning, 35-010-CV) and 1× Antibiotic-Antimycotic (Gibco #15240-062) and were grown at 37° C. in 5% CO2. All cell lines were authenticated by short tandem repeat profiling and tested negative for mycoplasma.
# (§2) This assay was performed with Compound 569 as an exemplary Formula (I) compound. Cells were plated in 6-well plates at different densities: 250 cells for no IR control, 5000 cells for 2 Gy of IR and 10000 cells for 4 Gy of IR and cultured overnight. The next day, MCF7 cells were preincubated with compound 569 at 100, 250, 500, or 1000 nM or DMSO for 30 min before being exposed to increasing doses of IR (0, 2, or 4 Gy). The A549 cells were incubated with Compound 569 at 500 or 1000 nM or with DMSO for 30 min before being exposed to increasing doses of IR (0, 2, or 4 Gy). After IR, cells were continuously incubated with DMSO or compound 569 for 5 h before the culture medium was removed and cells were washed with PBS. Cells were cultured in complete medium in the absence of inhibitor for 9 days. Then cells were stained (PBS, […], 0.1% crystal violet) rinsed with water and dried.
# A549 cells = assay: Clonogenic Survival Assay in A549 cells; assay type: cell-based, human; conditions: for Fold 2 Gy / Fold 4 Gy: vs DMSO; for % survival @ 0 Gy w/out IR: no IR
# Description: as §1, §2
# Chain of hERG channel (Q12809 whole entry): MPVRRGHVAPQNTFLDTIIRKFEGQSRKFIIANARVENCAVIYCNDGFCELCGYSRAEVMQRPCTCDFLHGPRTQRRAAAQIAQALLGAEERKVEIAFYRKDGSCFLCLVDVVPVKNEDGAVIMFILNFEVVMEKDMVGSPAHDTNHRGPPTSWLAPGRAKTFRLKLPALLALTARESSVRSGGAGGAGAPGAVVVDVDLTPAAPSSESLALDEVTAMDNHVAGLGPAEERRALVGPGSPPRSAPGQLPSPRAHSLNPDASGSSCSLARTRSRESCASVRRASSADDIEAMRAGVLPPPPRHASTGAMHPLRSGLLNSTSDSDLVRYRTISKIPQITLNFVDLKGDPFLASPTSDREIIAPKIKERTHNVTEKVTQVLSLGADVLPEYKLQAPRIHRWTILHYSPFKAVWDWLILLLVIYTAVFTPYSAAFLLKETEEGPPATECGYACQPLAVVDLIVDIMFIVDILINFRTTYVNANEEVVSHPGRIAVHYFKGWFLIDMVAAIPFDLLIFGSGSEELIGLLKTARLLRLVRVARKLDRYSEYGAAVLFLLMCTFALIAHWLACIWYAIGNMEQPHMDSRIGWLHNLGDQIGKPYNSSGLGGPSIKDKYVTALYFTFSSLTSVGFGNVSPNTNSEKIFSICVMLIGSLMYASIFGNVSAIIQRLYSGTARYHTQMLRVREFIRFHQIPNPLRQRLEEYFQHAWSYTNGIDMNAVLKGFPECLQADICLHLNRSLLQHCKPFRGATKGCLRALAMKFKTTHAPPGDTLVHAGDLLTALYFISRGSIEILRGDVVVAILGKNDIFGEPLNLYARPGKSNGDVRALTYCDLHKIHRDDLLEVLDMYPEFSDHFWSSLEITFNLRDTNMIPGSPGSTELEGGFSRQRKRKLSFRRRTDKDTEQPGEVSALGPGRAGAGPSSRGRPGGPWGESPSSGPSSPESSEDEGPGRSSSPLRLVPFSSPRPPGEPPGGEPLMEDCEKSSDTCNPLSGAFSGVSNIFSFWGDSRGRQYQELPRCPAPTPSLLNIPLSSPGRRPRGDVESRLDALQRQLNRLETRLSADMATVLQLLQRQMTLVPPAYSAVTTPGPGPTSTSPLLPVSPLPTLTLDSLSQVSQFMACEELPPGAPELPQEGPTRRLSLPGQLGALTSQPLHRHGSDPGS
smiles,measurement,setting,value
"CC(C)NCCOc1ncc(-c2cc3c4c(cnc3cc2F)N(C)C(=O)C42CCC2)cc1NS(C)(=O)=O [Compound 569, N-(5-(7′-Fluoro-3′-methyl-2′-oxo-2′,3′-dihydrospiro[cyclobutane-1,1′-pyrrolo[2,3-c]quinolin]-8′-yl)-2-(2-(isopropylamino)ethoxy)pyridin-3-yl)methanesulfonamide]",IC50,hERG channel,> 30 µM
same,cellular toxicity in the absence of IR,MCF7 cells; 5-h exposure,without evidence of cellular toxicity
same,radiosensitization,"MCF7 cells; 5-h exposure, 100-1000 nM, 0, 2, 4 Gy",significant degree of radiosensitization
same,Clonogenic survival ratio 0 Gy,MCF7 cells; 569 100 nM,1.000
same,Clonogenic survival ratio 2 Gy,MCF7 cells; 569 100 nM,0.0882
same,Fold 2 Gy,MCF7 cells; 569 100 nM,7.5
same,Clonogenic survival ratio 4 Gy,MCF7 cells; 569 100 nM,0.0146
same,Fold 4 Gy,MCF7 cells; 569 100 nM,21.8
same,% survival @ 0 Gy w/out IR,MCF7 cells; 569 100 nM,92%
same,Clonogenic survival ratio 0 Gy,MCF7 cells; 569 250 nM,1.000
same,Clonogenic survival ratio 2 Gy,MCF7 cells; 569 250 nM,0.0610
same,Fold 2 Gy,MCF7 cells; 569 250 nM,10.8
same,Clonogenic survival ratio 4 Gy,MCF7 cells; 569 250 nM,0.00588
same,Fold 4 Gy,MCF7 cells; 569 250 nM,54.0
same,% survival @ 0 Gy w/out IR,MCF7 cells; 569 250 nM,97%
same,Clonogenic survival ratio 0 Gy,MCF7 cells; 569 500 nM,1.000
same,Clonogenic survival ratio 2 Gy,MCF7 cells; 569 500 nM,0.0451
same,Fold 2 Gy,MCF7 cells; 569 500 nM,14.7
same,Clonogenic survival ratio 4 Gy,MCF7 cells; 569 500 nM,0.00347
same,Fold 4 Gy,MCF7 cells; 569 500 nM,91.5
same,% survival @ 0 Gy w/out IR,MCF7 cells; 569 500 nM,105%
same,Clonogenic survival ratio 0 Gy,MCF7 cells; 569 1000 nM,1.000
same,Clonogenic survival ratio 2 Gy,MCF7 cells; 569 1000 nM,0.0301
same,Fold 2 Gy,MCF7 cells; 569 1000 nM,22.0
same,Clonogenic survival ratio 4 Gy,MCF7 cells; 569 1000 nM,0.0016
same,Fold 4 Gy,MCF7 cells; 569 1000 nM,198
same,% survival @ 0 Gy w/out IR,MCF7 cells; 569 1000 nM,100%
same,cellular toxicity in the absence of IR,A549 cells; 5-h exposure,without evidence of cellular toxicity
same,radiosensitization,"A549 cells; 5-h exposure, 500 and 1000 nM, 0, 2, 4 Gy",significant degree of radiosensitization
same,Clonogenic survival ratio 0 Gy,A549 cells; 569 500 nM,1.000
same,Clonogenic survival ratio 2 Gy,A549 cells; 569 500 nM,0.0780
same,Fold 2 Gy,A549 cells; 569 500 nM,9.3
same,Clonogenic survival ratio 4 Gy,A549 cells; 569 500 nM,0.0044
same,Fold 4 Gy,A549 cells; 569 500 nM,64
same,% survival @ 0 Gy w/out IR,A549 cells; 569 500 nM,110%
same,Clonogenic survival ratio 0 Gy,A549 cells; 569 1000 nM,1.000
same,Clonogenic survival ratio 2 Gy,A549 cells; 569 1000 nM,0.0520
same,Fold 2 Gy,A549 cells; 569 1000 nM,14
same,Clonogenic survival ratio 4 Gy,A549 cells; 569 1000 nM,0.0015
same,Fold 4 Gy,A549 cells; 569 1000 nM,188
same,% survival @ 0 Gy w/out IR,A549 cells; 569 1000 nM,103%
